Counter-ions that a name gives are not always drawn. Like-named read-outs stand apart in the source and are kept apart here.
System: caudate lesioned mouse
Assay: caudate lesioned mouse test (anti-parkinson activity)
Format: in vivo
Conditions: for ED50: caudate lesioned mouse; for Molar Potency Ratio Claimed/Ref. Ester: claimed N-propyl ester vs corresponding N-methyl reference ester; for responders at 132 µmol/kg: dose 0.132 m. mole/kg; for responders at 52 µmol/kg: dose 0.052 m. mole/kg
Protocol: An index of anti-parkinson activity was determined using the caudate lesioned mouse test described by Lotti, Life Sci., 10, 781-789 (1971). The mice having unilateral lesions of the caudate nucleus prepared according to the method of Lotti supra were observed immediately after the surgical procedure for strong postural asymmetries directed to the same side as the lesion. When this asymmetry was not observed, the mice were discarded. Operated mice were allowed at least 14 days to recover prior to drug testing. The lesioned mice were tested with apomorphine using 1.7 mg./kg. of base administered intraperitoneally in a 1% suspension in gum tragacanth. […] Only those mice which twisted or circled toward the lesioned side in all three test periods after the apomorphine injection were retained for further drug testing. The test drugs were all administered in 1% gum tragacanth suspension in a volume of 0.1 ml./10 g. of body weight. Doses were expressed in mg./kg. of free base.
Results of tests in the caudate lesioned mouse test described above which were obtained on the compounds of the invention are given in the table below identified, in each case, by the example numbers above where their preparations are described. Corresponding data for reference apomorphine diesters described in German patent application No. 2,154,162 are given in a side-by-side relationship for a number of the species. The reference compounds, designated Ref. 1, Ref. 1B, Ref. 1C, Ref. 1D, Ref. 1E, Ref. 1F, Ref. 2 and Ref. 2A correspond, respectively, to the compounds of the invention identified by Examples 1, 1B, 1C, 1D, 1E, 1F, 2 and 2A and differ from the latter only in having a methyl group on the apomorphine nitrogen from instead of an n-propyl group as present in the instant compounds.

[1] = Mus musculus, 0.5 h, read-out: No. Mice Affected/No. Mice Tested, 1/2 h
[2] = Mus musculus, 1 h, read-out: No. Mice Affected/No. Mice Tested, 1 h
[3] = Mus musculus, 2 h, read-out: No. Mice Affected/No. Mice Tested, 2 h
[4] = Mus musculus, 4 h, read-out: No. Mice Affected/No. Mice Tested, 4 h
[5] = Mus musculus, 6 h, read-out: No. Mice Affected/No. Mice Tested, 6 h
[6] = Mus musculus, 24 h, read-out: No. Mice Affected/No. Mice Tested, 24 h
[7] = Mus musculus, read-out: No. Mice Affected/No. Mice Tested, Total
[8] = Mus musculus, 0.5 h, dose 0.026 m. mole/kg, 1/2 h post-drug, read-out: No. Mice Affected/No. Mice Tested, 1/2 h (converted)
[9] = Mus musculus, 0.5 h, 1/2 h post-drug, read-out: No. Mice Affected/No. Mice Tested, 1/2 h (converted)
[10] = Mus musculus, dose 0.026 m. mole/kg, 1 h post-drug, read-out: No. Mice Affected/No. Mice Tested, 1 h (converted)
[11] = Mus musculus, dose 0.026 m. mole/kg, 4 h post-drug, read-out: No. Mice Affected/No. Mice Tested, 4 h (converted)
[12] = Mus musculus, dose 0.026 m. mole/kg, 6 h post-drug, read-out: No. Mice Affected/No. Mice Tested, 6 h (converted)
[13] = Mus musculus, dose 0.026 m. mole/kg, 24 h post-drug, read-out: No. Mice Affected/No. Mice Tested, 24 h
[14] = Mus musculus, dose 0.026 m. mole/kg, total, read-out: No. Mice Affected/No. Mice Tested, Total (converted)
[15] = Mus musculus, 1 h post-drug, read-out: No. Mice Affected/No. Mice Tested, 1 h (converted)
[16] = Mus musculus, 4 h post-drug, read-out: No. Mice Affected/No. Mice Tested, 4 h (converted)
[17] = Mus musculus, 6 h post-drug, read-out: No. Mice Affected/No. Mice Tested, 6 h (converted)
[18] = Mus musculus, total, read-out: No. Mice Affected/No. Mice Tested, Total (converted)
[19] = Mus musculus, 24 h post-drug, read-out: No. Mice Affected/No. Mice Tested, 24 h

Structure (SMILES): CCCN1CCc2cccc3c2C1Cc1ccc(OC(=O)CC)c(OC(=O)CC)c1-3 (stereo not drawn) [Ex. 1 (Base), N-propylnorapomorphine dipropionate]
- responders at 5.2 µmol/kg [1]: 0%
- responders at 13 µmol/kg [1]: 75%
- responders at 26 µmol/kg [1]: 100%
- responders at 5.2 µmol/kg [2]: 0%
- responders at 13 µmol/kg [2]: 75%
- responders at 26 µmol/kg [2]: 100%
- responders at 5.2 µmol/kg [3]: 0%
- responders at 13 µmol/kg [3]: 75%
- responders at 26 µmol/kg [3]: 75%
- responders at 5.2 µmol/kg [4]: 0%
- responders at 13 µmol/kg [4]: 75%
- responders at 26 µmol/kg [4]: 75%
- responders at 5.2 µmol/kg [5]: 0%
- responders at 13 µmol/kg [5]: 50%
- responders at 26 µmol/kg [5]: 25%
- responders at 5.2 µmol/kg [6]: 0%
- responders at 13 µmol/kg [6]: 0%
- responders at 26 µmol/kg [6]: 0%
- ED50 (Mus musculus): 10 µmol/kg
- responders at 5.2 µmol/kg [7]: 0%
- responders at 13 µmol/kg [7]: 75%
- responders at 26 µmol/kg [7]: 100%
- Molar Potency Ratio Claimed/Ref. Ester: 10

Structure (SMILES): CCCN1CCc2cccc3c2C1Cc1ccc(OC(=O)CC)c(OC(=O)CC)c1-3 (stereo not drawn) [Ex. 1 (HCl), N-propylnorapomorphine dipropionate]
- ED50: 0.0094 m. mole/kg
- responders at 6.5 µmol/kg [1]: 25%
- responders at 130 µmol/kg [1]: 75%
- responders at 260 µmol/kg [1]: 100%
- responders at 6.5 µmol/kg [2]: 25%
- responders at 130 µmol/kg [2]: 50%
- responders at 260 µmol/kg [2]: 100%
- responders at 6.5 µmol/kg [3]: 0%
- responders at 130 µmol/kg [3]: 0%
- responders at 260 µmol/kg [3]: 100%
- responders at 6.5 µmol/kg [4]: 0%
- responders at 130 µmol/kg [4]: 0%
- responders at 260 µmol/kg [4]: 100%
- responders at 6.5 µmol/kg [5]: 0%
- responders at 130 µmol/kg [5]: 0%
- responders at 260 µmol/kg [5]: 100%
- responders at 6.5 µmol/kg [7]: 25%
- responders at 130 µmol/kg [7]: 75%
- responders at 260 µmol/kg [7]: 100%
- Molar Potency Ratio Claimed/Ref. Ester: 10

Structure (SMILES): CCCC(=O)Oc1ccc2c(c1OC(=O)CCC)-c1cccc3c1C(C2)N(CCC)CC3 (stereo not drawn) [Ex. 1A, N-Propylnorapomorphine dibutanoate]
- responders at 26 µmol/kg [8]: 0%
- responders at 132 µmol/kg [9]: 50%
- responders at 26 µmol/kg [10]: 0%
- responders at 26 µmol/kg (Mus musculus, dose 0.026 m. mole/kg, 2 h post-drug, read-out: No. Mice Affected/No. Mice Tested, 2 h (converted)): 0%
- responders at 26 µmol/kg [11]: 0%
- responders at 26 µmol/kg [12]: 0%
- responders at 26 µmol/kg [13]: 0%
- responders at 26 µmol/kg [14]: 0%
- responders at 132 µmol/kg [15]: 100%
- responders at 132 µmol/kg (Mus musculus, 2 h post-drug, read-out: No. Mice Affected/No. Mice Tested, 2 h (converted)): 100%
- responders at 132 µmol/kg [16]: 100%
- responders at 132 µmol/kg [17]: 100%
- responders at 132 µmol/kg (Mus musculus, 24 h post-drug, read-out: No. Mice Affected/No. Mice Tested, 24 h (converted)): 100%
- responders at 132 µmol/kg [18]: 100%

Structure (SMILES): CCCN1CCc2cccc3c2C1Cc1ccc(OC(=O)C(C)C)c(OC(=O)C(C)C)c1-3 (stereo not drawn) [Ex. 1B, N-Propylnorapomorphine diisobutyrate]
- responders at 26 µmol/kg [8]: 0%
- responders at 52 µmol/kg [9]: 33.3%
- responders at 26 µmol/kg [10]: 25%
- responders at 26 µmol/kg [11]: 50%
- responders at 26 µmol/kg [12]: 50%
- responders at 26 µmol/kg [13]: 0%
- responders at 26 µmol/kg [14]: 50%
- responders at 52 µmol/kg [15]: 33.3%
- responders at 52 µmol/kg [16]: 33.3%
- responders at 52 µmol/kg [17]: 0%
- responders at 52 µmol/kg [19]: 0%
- responders at 52 µmol/kg [18]: 33.3%
- Molar Potency Ratio Claimed/Ref. Ester: ≥ 8

Structure (SMILES): CCCN1CCc2cccc3c2C1Cc1ccc(OC(=O)C(C)(C)C)c(OC(=O)C(C)(C)C)c1-3 (stereo not drawn) [Ex. 1C, N-Propylnorapomorphine dipivaloate]
- responders at 26 µmol/kg [8]: 0%
- responders at 26 µmol/kg [10]: 0%
- responders at 26 µmol/kg [11]: 100%
- responders at 26 µmol/kg [12]: 100%
- responders at 26 µmol/kg [13]: 0%
- responders at 26 µmol/kg [14]: 100%
- Molar Potency Ratio Claimed/Ref. Ester: ≥ 16

Structure (SMILES): CCCN1CCc2cccc3c2C1Cc1ccc(OC(=O)c2ccccc2)c(OC(=O)c2ccccc2)c1-3 (stereo not drawn) [Ex. 1E, N-Propylnorapomorphine dibenzoate hydrochloride]
- responders at 52 µmol/kg [9]: 0%
- responders at 52 µmol/kg [15]: 0%
- responders at 52 µmol/kg [16]: 66.7%
- responders at 52 µmol/kg [17]: 33.3%
- responders at 52 µmol/kg [19]: 0%
- responders at 52 µmol/kg [18]: 66.7%
- Molar Potency Ratio Claimed/Ref. Ester: ≥ 8

From patent US4126616A, “N-propylnorapomorphine diesters” (Hinshaw; William B., priority 1976, dated 1978)
